ChEMBL document CHEMBL4196012 (Eur J Med Chem, 2018)
In brackets after ≈: the same amount, converted by molar mass.

Legend:
Staphylococcus aureus [1] = assay: Antibacterial activity against Staphylococcus aureus ATCC 6538p after 18 hrs by agar dilution method; format: functional
Staphylococcus aureus [2] = assay: Antibacterial activity against methicillin-resistant Staphylococcus aureus isolate 1 after 18 hrs by agar dilution method; format: functional; conditions: isolate 1, 18 h
Staphylococcus aureus [3] = assay: Antibacterial activity against methicillin-resistant Staphylococcus aureus isolate 2 after 18 hrs by agar dilution method; format: functional; conditions: isolate 2, 18 h
[4] = tested on: Staphylococcus epidermidis; assay: Antibacterial activity against Staphylococcus epidermidis ATCC 12228 after 18 hrs by agar dilution method; format: functional; conditions: ATCC 12228, 18 h
Bacillus spizizenii = assay: Antibacterial activity against Bacillus subtilis ATCC 6633 after 18 hrs by agar dilution method; format: functional; conditions: ATCC 6633, 18 h
Escherichia coli [5] = assay: Antibacterial activity against Escherichia coli ATCC 8739 after 18 hrs by agar dilution method; format: functional; conditions: ATCC 8739, 18 h
Klebsiella pneumoniae = assay: Antibacterial activity against Klebsiella pneumoniae ATCC 10031 after 18 hrs by agar dilution method; format: functional; conditions: ATCC 10031, 18 h
Pseudomonas aeruginosa = assay: Antibacterial activity against Pseudomonas aeruginosa ATCC 9027 after 18 hrs by agar dilution method; format: functional; conditions: ATCC 9027, 18 h
Bacillus subtilis = assay: Antibacterial activity against Bacillus subtilis PTCC 1023 by agar dilution method; format: functional
Staphylococcus aureus [6] = assay: Antibacterial activity against Staphylococcus aureus ATCC 6538P by agar dilution method; format: functional
[7] = tested on: Staphylococcus epidermidis; assay: Antibacterial activity against Staphylococcus epidermidis ATCC 12228 by agar dilution method; format: functional
Staphylococcus aureus [8] = assay: Antibacterial activity against quinolone-resistant Staphylococcus aureus after 16 to 20 hrs by NCCLS microdilution method; format: functional
Enterococcus faecium = assay: Antibacterial activity against vancomycin and quinolone-resistant Enterococcus faecium after 16 to 20 hrs by NCCLS microdilution method; format: functional
Streptococcus pneumoniae = assay: Antibacterial activity against quinolone-resistant Streptococcus pneumoniae after 16 to 20 hrs by NCCLS microdilution method; format: functional
Escherichia coli [9] = assay: In vivo antibacterial activity against Escherichia coli NCTC 10419 infected in po dosed mouse administered at 1 and 4 hrs post infection; format: functional, organism-based
Escherichia coli [10] = assay: microbe, parasite or virus in culture; conditions: NCTC 10419

| SMILES | MIC (Staphylococcus aureus [1]) [µg/mL] | MIC (Staphylococcus aureus [2]) [µg/mL] | MIC (Staphylococcus aureus [3]) [µg/mL] | MIC [4] [µg/mL] | MIC (Bacillus spizizenii) [µg/mL] | MIC (Escherichia coli [5]) [µg/mL] | MIC (Klebsiella pneumoniae) [µg/mL] | MIC (Pseudomonas aeruginosa) [µg/mL] | MIC (Bacillus subtilis) [µg/mL] | MIC (Staphylococcus aureus [6]) [µg/mL] | MIC [7] [µg/mL] | MIC (Staphylococcus aureus [8]) [µg/mL] | MIC (Enterococcus faecium) [µg/mL] | MIC (Streptococcus pneumoniae) [µg/mL] | EC50 (Escherichia coli [9]) [mg/kg] | MIC (Escherichia coli [10]) [nM] |
| --- | --- | --- | --- | --- | --- | --- | --- | --- | --- | --- | --- | --- | --- | --- | --- | --- |
| O=C(CN1CCN(c2cc3c(cc2F)c(=O)c(C(=O)O)cn3C2CC2)CC1)c1cc2ccccc2oc1=O | 0.025 to 1.56 (≈ 0.0483 to 3.01 µM) | 0.025 to 1.56 (≈ 0.0483 to 3.01 µM) | 0.025 to 1.56 (≈ 0.0483 to 3.01 µM) | 0.025 to 1.56 (≈ 0.0483 to 3.01 µM) | 0.025 to 1.56 (≈ 0.0483 to 3.01 µM) | 0.025 to 1.56 (≈ 0.0483 to 3.01 µM) | 0.025 to 1.56 (≈ 0.0483 to 3.01 µM) | 0.025 to 1.56 (≈ 0.0483 to 3.01 µM) | – | – | – | – | – | – | – | – |
| O=C(O)c1cn(C2CC2)c2cc(N3CCNCC3)c(F)cc2c1=O [CIPROFLOXACIN] | – | – | – | – | – | – | – | – | 0.015 to 0.5 (≈ 0.0453 to 1.51 µM) | 0.015 to 0.5 (≈ 0.0453 to 1.51 µM) | 0.015 to 0.5 (≈ 0.0453 to 1.51 µM) | ≥ 32 | ≥ 32 | ≥ 32 | 1.25 | 1.1 (≈ 0.364 ng/mL) |
